Experimental data from ChEMBL document CHEMBL4411323 (Bioorg Med Chem, 2019).

These compounds were tested against Serine/threonine-protein kinase B-raf (Homo sapiens, UniProt P15056, V600E) (assay: Inhibition of human BRAF V600E mutant using myelin basic protein as substrate measured after 40 mins in presence of [gamma33P-ATP] by scintillation counting method).
Chain of Serine/threonine-protein kinase B-raf (P15056 2-766 V600E limits assumed): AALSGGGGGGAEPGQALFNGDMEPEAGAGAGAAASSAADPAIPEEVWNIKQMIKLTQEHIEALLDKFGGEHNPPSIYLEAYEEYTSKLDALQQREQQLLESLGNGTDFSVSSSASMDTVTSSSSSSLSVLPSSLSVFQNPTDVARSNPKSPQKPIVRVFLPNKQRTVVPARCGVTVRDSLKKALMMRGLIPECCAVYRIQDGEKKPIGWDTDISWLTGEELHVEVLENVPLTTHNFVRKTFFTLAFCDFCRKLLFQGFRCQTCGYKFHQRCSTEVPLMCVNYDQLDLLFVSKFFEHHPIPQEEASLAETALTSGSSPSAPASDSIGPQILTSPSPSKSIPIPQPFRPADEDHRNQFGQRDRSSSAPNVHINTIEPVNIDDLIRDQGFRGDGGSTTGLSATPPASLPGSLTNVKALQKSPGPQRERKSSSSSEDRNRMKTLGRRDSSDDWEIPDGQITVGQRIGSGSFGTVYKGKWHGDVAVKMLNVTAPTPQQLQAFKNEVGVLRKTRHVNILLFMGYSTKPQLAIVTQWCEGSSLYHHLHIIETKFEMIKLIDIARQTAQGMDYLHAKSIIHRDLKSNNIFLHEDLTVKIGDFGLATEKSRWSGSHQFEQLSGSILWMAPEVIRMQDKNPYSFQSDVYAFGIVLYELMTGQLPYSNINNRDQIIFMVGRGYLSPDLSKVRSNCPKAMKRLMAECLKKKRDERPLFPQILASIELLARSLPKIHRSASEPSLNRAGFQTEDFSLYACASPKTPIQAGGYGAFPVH

SMILES | IC50 [nM]
COc1cc(Cl)cc(-c2nn(-c3cccc(NC(=O)c4cccc(C(F)(F)F)c4)c3)cc2-c2ccncc2)c1 | 160
COc1cc(Cl)cc(-c2nn(-c3cccc(NC(=O)Nc4ccc(Cl)c(C(F)(F)F)c4)c3)cc2-c2ccncc2)c1 | 189
COc1cc(Cl)cc(-c2nn(-c3cccc(NC(=O)c4ccc(Cl)c(Cl)c4)c3)cc2-c2ccncc2)c1 | 87200
COc1cc(Cl)cc(-c2nn(-c3cccc(NC(=O)Nc4ccc(Cl)c(Cl)c4)c3)cc2-c2ccncc2)c1 | 251
O=C(Nc1cccc(-n2cc(-c3ccncc3)c(-c3cc(O)cc(Cl)c3)n2)c1)Nc1cccc(C(F)(F)F)c1 | 30
COc1cc(Cl)cc(-c2nn(-c3cccc(NC(=O)c4cc(C(F)(F)F)cc(C(F)(F)F)c4)c3)cc2-c2ccncc2)c1 | 7410
COc1cc(Cl)cc(-c2nn(-c3cccc(NC(=O)c4ccc(N5CCOCC5)c(C(F)(F)F)c4)c3)cc2-c2ccncc2)c1 | 348
O=C(Nc1cccc(-n2cc(-c3ccncc3)c(-c3cc(O)cc(Cl)c3)n2)c1)c1cc(C(F)(F)F)cc(C(F)(F)F)c1 | 212
COc1cc(Cl)cc(-c2nn(-c3cccc(NC(=O)c4ccccc4)c3)cc2-c2ccncc2)c1 | 3690
O=C(Nc1cccc(-n2cc(-c3ccncc3)c(-c3cc(O)cc(Cl)c3)n2)c1)Nc1cc(C(F)(F)F)cc(C(F)(F)F)c1 | 2110
O=C(Nc1cccc(-n2cc(-c3ccncc3)c(-c3cc(O)cc(Cl)c3)n2)c1)c1ccc(N2CCOCC2)c(C(F)(F)F)c1 | 14
O=C(Nc1cccc(-n2cc(-c3ccncc3)c(-c3cc(O)cc(Cl)c3)n2)c1)c1ccccc1 | 26
O=C(Nc1cccc(-n2cc(-c3ccncc3)c(-c3cc(O)cc(Cl)c3)n2)c1)c1cccc(C(F)(F)F)c1 | 38
O=C(Nc1cccc(-n2cc(-c3ccncc3)c(-c3cc(O)cc(Cl)c3)n2)c1)Nc1ccc(Cl)c(Cl)c1 | 45
COc1cc(Cl)cc(-c2nn(-c3cccc(NC(=O)Nc4cccc(C(F)(F)F)c4)c3)cc2-c2ccncc2)c1 | 475
O=C(Nc1cccc(-n2cc(-c3ccncc3)c(-c3cc(O)cc(Cl)c3)n2)c1)c1ccc(Cl)c(Cl)c1 | 47
O=C(Nc1ccccc1)Nc1cccc(-n2cc(-c3ccncc3)c(-c3cc(O)cc(Cl)c3)n2)c1 | 919
COc1cc(Cl)cc(-c2nn(-c3cccc(NC(=O)Nc4ccccc4)c3)cc2-c2ccncc2)c1 | 488
O=C(Nc1cccc(-n2cc(-c3ccncc3)c(-c3cc(O)cc(Cl)c3)n2)c1)Nc1ccc(Cl)c(C(F)(F)F)c1 | 7
